ChEMBL document CHEMBL1667810, “New positive allosteric modulators of the metabotropic glutamate receptor 2 (mGluR2): identification and synthesis of N-propyl-8-chloro-6-substituted isoquinolones” (Bioorg Med Chem Lett, 2011)

Assays:
Format in all cases: functional, cell-based
[1] = molecular target: T1, Metabotropic glutamate receptor 2 (Homo sapiens, UniProt Q14416); test: Agonist activity at human mGluR2 expressed in HEK293 cells assessed as induction of calcium release by FLIPR assay
Target sequence in this assay (Q14416 whole entry): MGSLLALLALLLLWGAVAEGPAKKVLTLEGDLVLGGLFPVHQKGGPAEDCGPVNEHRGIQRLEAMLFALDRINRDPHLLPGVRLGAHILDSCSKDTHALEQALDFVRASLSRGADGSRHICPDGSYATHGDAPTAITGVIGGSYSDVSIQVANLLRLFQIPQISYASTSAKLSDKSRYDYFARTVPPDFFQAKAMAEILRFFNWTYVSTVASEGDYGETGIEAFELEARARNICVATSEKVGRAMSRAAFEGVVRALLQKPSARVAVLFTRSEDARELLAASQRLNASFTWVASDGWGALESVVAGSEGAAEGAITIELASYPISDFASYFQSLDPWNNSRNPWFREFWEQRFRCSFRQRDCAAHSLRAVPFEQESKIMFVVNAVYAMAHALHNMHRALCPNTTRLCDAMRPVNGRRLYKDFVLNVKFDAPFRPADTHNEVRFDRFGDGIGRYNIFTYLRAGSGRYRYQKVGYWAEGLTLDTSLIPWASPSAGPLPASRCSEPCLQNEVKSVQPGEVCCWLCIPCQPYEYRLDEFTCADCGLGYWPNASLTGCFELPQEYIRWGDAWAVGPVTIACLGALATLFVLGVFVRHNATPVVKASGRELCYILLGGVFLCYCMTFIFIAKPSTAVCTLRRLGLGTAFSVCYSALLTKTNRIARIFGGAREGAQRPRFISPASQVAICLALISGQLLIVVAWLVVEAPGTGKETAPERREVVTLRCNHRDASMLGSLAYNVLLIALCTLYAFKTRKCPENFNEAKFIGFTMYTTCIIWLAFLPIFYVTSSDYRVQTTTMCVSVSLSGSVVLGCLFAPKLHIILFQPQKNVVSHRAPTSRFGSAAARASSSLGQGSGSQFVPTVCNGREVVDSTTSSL

[2] = molecular target: T1, Metabotropic glutamate receptor 2; test: Agonist activity at human mGluR2 expressed in CHO cells at by [S35]GTPgammaS binding assay relative to glutamate
Target sequence in this assay (Q14416 19-872 limits assumed): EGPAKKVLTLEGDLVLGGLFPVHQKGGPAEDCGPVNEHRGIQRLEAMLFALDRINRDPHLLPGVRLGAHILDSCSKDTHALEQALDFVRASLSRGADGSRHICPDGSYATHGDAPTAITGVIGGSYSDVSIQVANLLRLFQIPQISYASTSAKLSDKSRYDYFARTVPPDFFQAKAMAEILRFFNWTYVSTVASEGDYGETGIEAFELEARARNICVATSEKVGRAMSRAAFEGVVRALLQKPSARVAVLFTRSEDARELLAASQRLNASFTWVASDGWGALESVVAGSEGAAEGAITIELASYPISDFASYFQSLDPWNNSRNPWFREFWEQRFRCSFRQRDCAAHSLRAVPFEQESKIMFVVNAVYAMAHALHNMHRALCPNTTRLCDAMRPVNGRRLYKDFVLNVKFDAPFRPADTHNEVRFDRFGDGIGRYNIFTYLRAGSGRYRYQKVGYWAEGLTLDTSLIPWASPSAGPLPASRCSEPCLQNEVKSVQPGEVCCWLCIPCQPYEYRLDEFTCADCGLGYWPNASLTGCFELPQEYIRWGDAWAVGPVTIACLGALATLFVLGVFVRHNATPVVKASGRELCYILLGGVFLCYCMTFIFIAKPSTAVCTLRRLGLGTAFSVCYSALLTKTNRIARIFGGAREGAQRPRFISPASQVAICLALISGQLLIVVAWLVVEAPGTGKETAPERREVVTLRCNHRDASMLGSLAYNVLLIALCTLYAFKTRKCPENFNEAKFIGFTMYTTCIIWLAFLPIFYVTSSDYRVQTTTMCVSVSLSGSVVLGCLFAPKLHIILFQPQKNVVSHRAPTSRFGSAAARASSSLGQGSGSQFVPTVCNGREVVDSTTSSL

[3] = molecular target: T1, Metabotropic glutamate receptor 2; test: Agonist activity at human mGluR2 expressed in CHO cells at by [S35]GTPgammaS binding assay
Target sequence in this assay (Q14416 whole entry): as the sequence (Q14416 whole entry) above

Row | EC50 [1] | Emax [2] | EC50 [3] | Compound
1 | 2510 nM | 104% | 5010 nM | CCCn1ccc2cc(N3CCOCC3)cc(Cl)c2c1=O
2 | – | 81% | 7940 nM | CCCn1ccc2cc(-c3cccnc3)ccc2c1=O
3 | – | 73% | 1260 nM | CCCn1ccc2cc(-c3ccncc3)cc(Cl)c2c1=O
4 | – | – | > 50100 nM | CCCn1ccc2cc(-c3cccnc3)cc(C#N)c2c1=O
5 | – | 83% | 631 nM | CCCn1ccc2cc(-c3cccnc3)cc(Cl)c2c1=O
6 | – | 136% | 316 nM | CCCn1ccc2cc(-c3ccc(OC)cc3)cc(Cl)c2c1=O
7 | – | 65% | 1580 nM | CCCn1ccc2cc(-c3cn[nH]c3)cc(Cl)c2c1=O
8 | – | 90% | 158 nM | CCCn1ccc2cc(-c3ccc(Oc4ccncc4)cc3)cc(Cl)c2c1=O
9 | – | 120% | 316 nM | CCCn1ccc2cc(-c3ccc(OCc4cccnc4)nc3)cc(Cl)c2c1=O
10 | – | 75% | 398 nM | CCCn1ccc2cc(-c3cnc(OC)c(F)c3)cc(Cl)c2c1=O
11 | – | 82% | 3160 nM | CCCn1ccc2cc(NCc3cccnc3)cc(Cl)c2c1=O
12 | – | 92% | 501 nM | CCCn1ccc2cc(-c3ccc(Oc4ccccc4)nc3)cc(Cl)c2c1=O
13 | – | 103% | 631 nM | CCCn1ccc2cc(-c3ccc(OCCc4ccccc4)nc3)cc(Cl)c2c1=O
14 | – | 126% | 2510 nM | CCCn1ccc2cc(OCc3cccnc3)cc(Cl)c2c1=O
15 | – | 170% | 251 nM | CCCn1ccc2cc(-c3ccc(OCc4ccc(C(F)(F)F)nc4)cc3)cc(Cl)c2c1=O
16 | – | 85% | 5010 nM | CCCn1ccc2cc(-c3ccc(N(C)C)nc3)cc(Cl)c2c1=O
17 | – | 81% | 398 nM | CCCn1ccc2cc(-c3ccc(OCc4ccc(Cl)nc4)cc3)cc(Cl)c2c1=O
18 | – | 88% | 2000 nM | CCCn1ccc2cc(-c3ccc(Oc4ccccc4)cc3)cc(Cl)c2c1=O
19 | – | 75% | 631 nM | CCCn1ccc2cc(OCCCc3cccnc3)cc(Cl)c2c1=O
20 | – | 47% | 794 nM | CCCn1ccc2cc(OCCc3cccnc3)cc(Cl)c2c1=O
21 | – | 84% | 794 nM | CCCn1ccc2cc(-c3ccc(N4CCOCC4)nc3)cc(Cl)c2c1=O
22 | – | 106% | 5010 nM | CCCn1ccc2cc(N3CCC(O)CC3)cc(Cl)c2c1=O
23 | – | 121% | 794 nM | CCCn1ccc2cc(-c3ccc(OC)nc3)cc(Cl)c2c1=O
24 | – | 66% | > 10000 nM | CCCn1ccc2cc(N3CCOCC3)ccc2c1=O
25 | – | 64% | 1260 nM | CCCn1ccc2cc(-c3ccc(OCc4cccnc4)cc3)cc(Cl)c2c1=O
26 | – | 28% | 3980 nM | CCCn1ccc2cc(-c3cncnc3)cc(Cl)c2c1=O

Row | Compound | EC50 [1] | Emax [2] | EC50 [3]
27 | CCCn1ccc2cc(N3CCNCC3)cc(Cl)c2c1=O | – | 47% | > 10000 nM
